Legend:
Type in all cases: in vivo, human
[1] = system: subjects being treated for anxiety; test: Experimental trial, 9-day dosing protocol, subjects treated for anxiety
Experimental: (§1) An experimental trial was conducted on 11 subjects who followed a 9-day dosing protocol for CBD oil. The subjects sought treatment for anxiety, pain, or sleep. On a daily basis, the subjects rated the intensity of their symptoms on a 0-10 numeric scale, with 0 being best and 10 being worst intensity. This scale was constructed similar to the standard ‘Numeric Pain Rating Scale’ often used in clinical practice for pain assessment.
(§2) The trial further enrolled five additional subjects. […] Days 1-3 were a maximum of 5 mg CBD; days 4-6 were a maximum of 10 mg CBD; days 7-9 were a maximum of 20 mg CBD.

[2] = system: subjects being treated for pain; test: Experimental trial, 9-day dosing protocol, subjects treated for pain
Experimental: as §1, §2

[3] = system: subjects being treated for either anxiety, sleep, or pain; test: Experimental trial, all 16 subjects combined (anxiety, sleep or pain), mean daily scores
Experimental: as §1, §2

user with pain = test: Example 1: 9 day dose titration protocol by automated text messages, user treating pain; parameters: key to pain score: higher = worse pain; 8 = severe, 6 = moderate
Experimental: In this example This is an example of an automated text message exchange with a user for a 9 day (consecutive) dose titration protocol is sufficient to achieve a minimum effective dose. In this example, Twilio was the automated text messaging service that was used. The cannabinoid medication kit is three 15 ml bottles of CBD tincture (i.e. CBD mixed into an ethyl alcohol base): bottle #1, bottle #2, and bottle #3. Bottle #1 contains CBD at a concentration of 100 mg in 5 ml volume (20 mg/ml). Bottle #2 contains CBD at a higher concentration (2×) of 200 mg in 5 ml volume (40 mg/ml). Bottle #3 contains CBD at a further higher concentration (3×) of 300 mg in 5 ml volume (60 mg/ml). Because the three bottles have different dose amounts, to facilitate identifying the correct bottle and avoid mistakes, bottle #1 has a blue-colored label, bottle #2 has a yellow-colored label, and bottle #3 has an orange-colored label. The user inputs the product code or batch number. This ensures that the relevant dosing protocol is associated with the correct cannabinoid product.
On day #1, the user reports a pain score of 8, indicating severe pain. Accordingly, the user is instructed to take the first dose of 6.25 mg from the (blue bottle) twice daily, and continue this dose regimen for the next three days. To facilitate correct adherence to the instructions, the user is shown an image of the blue bottle and the correct liquid level marking on the graduated dropper. On day #2, the user reports a pain score of 6, indicating a reduction in pain symptoms to a moderate level.
On day #4, the user reports a pain score of 5, indicating a reduction in pain symptoms. […] The user is shown an image of the yellow bottle and the correct liquid level marking on the graduated dropper. On day #5, the user reports a pain score of 7, indicating a flare-up of the pain symptoms. The user is asked whether there were any external factors that might have caused this flare-up. […] Thus, the user is asked whether to pause the protocol to allow the user to reassess whether this treatment will be beneficial. Here, the user desires to continue CBD treatment.
Accordingly, the user is given reassurance and instructed to continue at the same dose (i.e. 12.5 mg twice daily).
It is now time for the user to increase the dose amount to stabilize the pain at that level. Accordingly, the user is instructed to switch to the orange bottle (60 mg/ml) and take 18.75 mg twice daily. The user is shown an image of the orange bottle and the correct liquid level marking on the graduated dropper. […] Accordingly, the user is instructed to continue the same dosing regimen (i.e. 18.75 mg twice daily). […] Accordingly, the user has reached the personalized minimum effective dose and is instructed to continue the same dosing regimen (i.e. 18.75 mg twice daily) from hereon. At the end of the protocol, the user also receives a summary report that indicates the minimum effective dose, the lowest pain score achieved, the starting and ending benchmarks, and a graph plotting the daily symptom scores.

`C=C(C)[C@@H]1CCC(C)=C[C@H]1c1c(O)cc(CCCCC)cc1O` [CBD, cannabidiol] was tested, and the minimum optimal dose ([1]; Subject #C1_8, anxiety) was 20 mg of CBD/day, the “anxiety score after completion of the protocol” value ([1]; Subject #C1_8, started with score of 5, 0-10 scale) was 1 and the minimum optimal dose ([1]; Subject #C1_10, anxiety) was 10 mg of CBD/day. For the same compound, the “anxiety score after completion of the protocol” value ([1]; Subject #C1_10, started with score of 7, 0-10 scale) was 2, the minimum optimal dose ([2]; Subject #C1_4, pain) was 10 mg of CBD/day and the “pain score after completion of the protocol” value ([2]; Subject #C1_4, started with score of 3, 0-10 scale) was 0. For the same compound, the “mean scores, initial versus end score” value ([3]; days 1-3 max 5 mg, days 4-6 max 10 mg, days 7-9 max 20 mg CBD, FIG. 7) was “mean scores improved”, the “mean daily scores, trend line” value ([3]; days 1-9, FIG. 8) was “downward trending line” and the pain score (user with pain; day #2, CBD tincture 6.25 mg twice daily, day #1 score 8) was 6. It also gave a pain score (user with pain; day #3, CBD tincture 6.25 mg twice daily) of 6, a pain score (user with pain; day #4, after 6.25 mg twice daily for three days) of 5 and a pain score (user with pain; day #5, 12.5 mg twice daily, flare-up) of 7. For the same compound, the pain score (user with pain; day #6, 12.5 mg twice daily) was 5, the pain score (user with pain; day #7, after 12.5 mg twice daily) was 4 and the pain score (user with pain; day #8, 18.75 mg twice daily) was 4. For the same compound, the pain score (user with pain; day #9, 18.75 mg twice daily) was 4 and the “personalized minimum effective dose” value (user with pain; reached on day #9, pain) was 18.75 mg twice daily.

From patent publication US20220249397A1, “Automated Dosing Protocol for Use of Cannabinoids or Other Psychoactive Substances” (Function Better Inc., priority 2021, published 2022)
